Consider 3 molecules from patent publication US5387710A, “Ethanolamine derivatives having sympathomimetic and anti-pollakiuria activities” (Fujisawa Pharmaceutical Co., Ltd., priority 1992, dated 1995).

Where a name gives a salt, the structure may show the parent alone.

Test [1] has as its system isolated rat distal colon. The test is described as follows: Effect on isolated rat distal colon (spontaneous contractions, organ bath). Type of test: cell-based. Conditions: 0.5 h, isolated distal colon strip of male SD rats, Tyrode solution 37° C., observed over 30 minutes. As for the experimental part: Effect on isolated rat distal colon:
Male SD rats (180~230 g) were used. Animals were fasted for 24 hours prior to experiment. Distal colon was removed immediately after sacrifice and placed in an organ bath containing 25 ml Tyrode solution aerating with 95% O2, 5% CO2 at 37° C. The strip was mounted under 0.5 g tension and spontaneous contractions were recorded isometrically. After the mobility was of a uniform size, test compound was added to an organ bath and the contractions were observed over a 30 minutes period. Effect of test compound was calculated by comparing contractions before and after test compound.

Test [2] concerns isolated non-pregnant rat uterus. Description: Effect on isolated non-pregnant rat uterus (spontaneous contractions, organ bath). Type of test: cell-based. The note with it: 20 min, isolated uterine horn strip of estradiol-treated female SD rats, Locke solution 37° C., observed over 20 minutes. Here is the method:
Effect on isolated non-pregnant rat uterus:
Female SD rats (150~180 g) were used. 48 and 24 hours prior to use, rats were given estradiol (ovahormon benzoat: Trademark, Teikoku Hormone Mfg. Co., Ltd.) subcutaneously at a dose of 40 μg/rat to induce oestrus. The animals were killed and uterine horns were removed. Each strip was placed in an organ bath containing 25 ml Locke solution aerating with 95% O2, 5% CO2 at 37° C. under 1 g tension. Contractions were recorded isometrically. After the spontaneous contractions were of a uniform size, test compound was added to organ bath. The motility was observed over a 20 minutes period. Effect of test compound was calculated by comparing contractions before and after test compound.

As to `CCOC(=O)COc1ccc2c(c1)CC(NC[C@H](O)c1cccc(Cl)c1)CCC2` (mixture of isomers) [Example 1, (1R,6'R)- and (1R,6'S)-2-[(3-ethoxycarbonyl-methoxy-6,7,8,9-tetrahydro-5H-benzocyclohepten-6-yl)amino]-1-(3-chlorophenyl)ethanol hydrochloride], the IC50 in test [1] was found to be 0.68 nM; in test [2], 200 nM.

In the case of `CCOC(=O)COc1ccc2c(c1)C[C@@H](NC[C@H](O)c1cccc(Cl)c1)CCC2` [2-3), (1R,6'S)-2-[(3-Ethoxycarbonylmethoxy-6,7,8,9-tetrahydro-5H-benzocyclohepten-6-yl)amino]-1-(3-chlorophenyl)ethanol hydrochloride], the IC50 in test [1] worked out at 0.84 nM; in test [2], 440 nM.

Regarding `CCOC(=O)COc1ccc2c(c1)C[C@H](NC[C@H](O)c1cccc(Cl)c1)CCC2` [3-2), (1R,6'R)-2-[(3-Ethoxycarbonylmethoxy-6,7,8,9-tetrahydro-5H-benzocyclohepten-6-yl)amino]-1-(3-chlorophenyl)ethanol], the IC50 in test [1] worked out at 0.66 nM; in test [2], 240 nM.

The term IC50 denotes the concentration at which inhibition is half-maximal. High values mean lower potency, low ones higher potency.
